Measured values as given in patent publication US8822423B2 (Janssen Biotech, Inc., priority 2012, dated 2014).
Ends that are not written are not given here.

System: not given
Assay: not given
Conditions: given by IV infusion; cited from earlier work

| Substance | half-life |
| --- | --- |
| infliximab: chimeric IgG1κ monoclonal antibody that blocks the action of TNF-alpha | approximately eight |

System: infliximab
Assay: Infliximab affinity peptide ELISA, concentration dependent binding
Conditions: biotinylated synthesized peptides, 0.0028-500 micromolar, FIG. 5
Description: 96-well black ELISA plates were coated with goat anti-human Fc (Jackson Immunoresearch Laboratories, Inc., West Grove, Pa., cat. #109-006-098) at a concentration of 5 micrograms/mL in PBS. Plates were incubated overnight at 4° C. Plates were washed 3 times with TBST using a plate washer. […] To all other wells, 100 microliters of PBS was introduced. The plates were again washed 3 times with TBST using the plate washer. The wells were then blocked with 250 microliters of a 3% dehydrated milk suspension in TBST and allowed to sit at room temperature for a minimum of 1 hour. Biotinylated, chemically synthesized peptides having SEQ ID NO: 2, SEQ ID NO: 3, SEQ ID NO: 10, and SEQ ID NO: 13 were prepared using standard, automated Fluorenylmethyloxycarbonyl (Fmoc) solid phase peptide synthesis procedures. Each peptide solution for the assay was prepared from a 500 micromolar stock solution. The stock solution was serially diluted in assay buffer resulting in peptide concentrations of 500, 166.6, 55.5, 18.5, 6.2, 2.1, 0.69, 0.23, 0.076, 0.025, 0.0085 and 0.0028 micromolar.
After blocking, the ELISA plate was washed 3 times with TBST and 100 microliters of the serially diluted peptides were added to the corresponding wells of the ELISA plate and allowed to sit at room temperature for a minimum of 1 hour. […] The luminescence was read using a luminometer set with a gain of 150.

| Substance | rank according to concentration-dependent binding to infliximab |
| --- | --- |
| SEQ ID NO: 3: infliximab affinity peptide of FIG. 1; also chemically synthesized, biotinylated (AGTYCHPDQLRNLCPV; cysteine pairing not given here; also: biotinylated, position not given here) | SEQ ID NO: 2>SEQ ID NO: 10>SEQ ID NO: 3>SEQ ID NO: 13 |
| SEQ ID NO: 13: infliximab affinity peptide of FIG. 1; also chemically synthesized, biotinylated (AGPPCIVTQLSDLSFCAP; cysteine pairing not given here; also: biotinylated, position not given here) | SEQ ID NO: 2>SEQ ID NO: 10>SEQ ID NO: 3>SEQ ID NO: 13 |

System: infliximab
Assay: Confirmatory phage ELISA, binding of phage-displayed peptides to infliximab
Conditions: FIG. 3, N value of 2
Description: 96-well black ELISA plates were coated with streptavidin (Columns 1 through 4), mAb competitor (Columns 5 and 6), hIgG (Columns 7 and 8), human serum albumin (Columns 9 and 10) and collagen (Columns 11 and 12), at a concentration of 5 micrograms/mL in PBS. Plates were incubated overnight at 4° C. Plates were washed 3 times with TBST using a plate washer. To the streptavidin-coated wells in columns 3 and 4, 100 microliters of a 5 micrograms/mL solution of biotinylated-infliximab was introduced and allowed to sit at room temperature for 30 minutes. To all other wells, 100 microliters of PBS was introduced. The plates were again washed 3 times with TBST using the plate washer. The wells were then blocked with 250 microliters of a 3% dehydrated milk suspension in TBST and allowed to sit at room temperature for a minimum of 1 hour. Using phage concentrations determined by the phage titrations, dilutions of the phage stock solutions were performed in a separate 96-well plate to result in phage concentrations of 10^10, 10^9, 10^8, 10^7, 10^6 and 10^5 phage/well. After blocking, the ELISA plate was washed 3 times with TBST and 100 microliters of the phage dilutions were introduced to the respective ELISA plates and allowed to sit at room temperature for a minimum of 1 hour. The ELISA plate was again washed 3 times with TBST using the plate washer and 100 microliters of an horseradish peroxidase (HRP)-conjugated Anti-M13 Phage Mab (1:5000 dilution in PBS) was introduced to each well. The plates were allowed to sit at room temperature for 1 hour after which time the plates were washed 3 times with TBST. Next, a peroxidase-based (POD) HRP-substrate was introduced to each well. The luminescence was read using a luminometer set with a gain of 150.

| Substance | binding to infliximab (phage ELISA, relative luminescence) |
| --- | --- |
| SEQ ID NO: 1: infliximab affinity peptide of FIG. 1, identified by pIX phage display (AGWTVAYVPPGPSYATS) | confirms the binding |
| SEQ ID NO: 3: infliximab affinity peptide of FIG. 1; also chemically synthesized, biotinylated (AGTYCHPDQLRNLCPV; cysteine pairing not given here; also: biotinylated, position not given here) | confirms the binding |
| SEQ ID NO: 4: infliximab affinity peptide of FIG. 1, identified by pIX phage display (AGVTCRMTEYGPMCPT) | confirms the binding |
| SEQ ID NO: 5: infliximab affinity peptide of FIG. 1, identified by pIX phage display (AGNRCAYAAGTIQCFP) | confirms the binding |
| SEQ ID NO: 6: infliximab affinity peptide of FIG. 1, identified by pIX phage display (AGEICYWHDTDWVCTE) | confirms the binding |
| SEQ ID NO: 7: infliximab affinity peptide of FIG. 1, identified by pIX phage display (AGTHCSYVLGRIECLP) | confirms the binding |
| SEQ ID NO: 8: infliximab affinity peptide of FIG. 1, identified by pIX phage display (AGNYCHPDQLSQFCAR) | confirms the binding |
| SEQ ID NO: 9: infliximab affinity peptide of FIG. 1, identified by pIX phage display (AGVACHSTGTNIYTCTY) | confirms the binding |
| SEQ ID NO: 11: infliximab affinity peptide of FIG. 1, identified by pIX phage display (AGSLCHTVGSGIYNCTK) | confirms the binding |
| SEQ ID NO: 12: infliximab affinity peptide of FIG. 1, identified by pIX phage display (AGIQCHDVGAGVVTCTY) | confirms the binding |
| SEQ ID NO: 13: infliximab affinity peptide of FIG. 1; also chemically synthesized, biotinylated (AGPPCIVTQLSDLSFCAP; cysteine pairing not given here; also: biotinylated, position not given here) | confirms the binding |
| SEQ ID NO: 14: infliximab affinity peptide of FIG. 1, identified by pIX phage display (AGARCAPAFDANWLICSN) | confirms the binding |
| SEQ ID NO: 15: infliximab affinity peptide of FIG. 1, identified by pIX phage display (AGPPCAAAMAQAQLACTH) | confirms the binding |
| SEQ ID NO: 16: infliximab affinity peptide of FIG. 1, identified by pIX phage display (AGVVCATPEWTWDPACAT) | confirms the binding |
| SEQ ID NO: 17: infliximab affinity peptide of FIG. 1, identified by pIX phage display (AGLLCAPSLDPDYILCDQ) | confirms the binding |
| SEQ ID NO: 18: infliximab affinity peptide of FIG. 1; wild type for site-directed mutagenesis (AG-XXXX-PWPPTAES-XXXX mutants) (AGLLCEPWPPTAESICRS) | confirms the binding |
| SEQ ID NO: 19: infliximab affinity peptide of FIG. 1, identified by pIX phage display (AGPPYTVFVHL) | confirms the binding |
| SEQ ID NO: 20: infliximab affinity peptide of FIG. 1, identified by pIX phage display (AGYCISDYIDPCH) | confirms the binding |
| SEQ ID NO: 21: infliximab affinity peptide of FIG. 1, identified by pIX phage display (AGPCISDYFDPCH) | confirms the binding |
| SEQ ID NO: 22: infliximab affinity peptide of FIG. 1, identified by pIX phage display (AGLCPELPHC) | confirms the binding |
| SEQ ID NO: 23: infliximab affinity peptide of FIG. 1, identified by pIX phage display (AGPCPELPHCTY) | confirms the binding |

System: WEHI-13VAR mouse fibroblasts
Assay: In vitro bioactivity of infliximab in the presence of affinity peptides, MTT cell viability with TNF-α
Assay type: cell-based
Conditions: peptide 66 nanomolar, infliximab 0-66 nanomolar, overnight, FIG. 7
Description: In this experiment, we determined if the affinity peptides would interfere with the binding of tumor necrosis factor alpha (TNF-α) using WEHI-13VAR mouse fibroblasts.
WEHI-13VAR cells (mouse fibroblast cell line) were plated out in wells of a 96 well plate two hours prior to running the experiment at 50000 cells per well. […] After overnight incubation, cell viability was assessed using an MTT cell viability assay (R&D Systems, Inc., Minneapolis, Minn., cat #4890-050-K) following the product insert.

| Substance | effect on the viability of WEHI-13VAR mouse fibroblasts in the presence of infliximab |
| --- | --- |
| SEQ ID NO: 13: infliximab affinity peptide of FIG. 1; also chemically synthesized, biotinylated (AGPPCIVTQLSDLSFCAP; cysteine pairing not given here; also: biotinylated, position not given here) | minimal effect |
